Experimental data taken from patent publication US20150183737A1, “COMPOSITIONS AND METHODS FOR SUBSTRATE-SELECTIVE INHIBITION OF ENDOCANNABINOID OXYGENATION” (Vanderbilt University, priority 2012, published 2015).
Like-named read-outs stand apart in the source and are kept apart here.

Columns and labels:
purified murine COX-2 [1] = biological target: T1, purified murine COX-2 (Mus musculus, UniProt Q05769); test: Inhibition of mCOX-2-dependent oxygenation of 2-AG and AA by lumiracoxib and derivatives in vitro; assay type: biochemical; parameters: made in house; host or cells: insect cells; dose or concentration left out as unconfirmed
T1 sequence (Q05769 18-604): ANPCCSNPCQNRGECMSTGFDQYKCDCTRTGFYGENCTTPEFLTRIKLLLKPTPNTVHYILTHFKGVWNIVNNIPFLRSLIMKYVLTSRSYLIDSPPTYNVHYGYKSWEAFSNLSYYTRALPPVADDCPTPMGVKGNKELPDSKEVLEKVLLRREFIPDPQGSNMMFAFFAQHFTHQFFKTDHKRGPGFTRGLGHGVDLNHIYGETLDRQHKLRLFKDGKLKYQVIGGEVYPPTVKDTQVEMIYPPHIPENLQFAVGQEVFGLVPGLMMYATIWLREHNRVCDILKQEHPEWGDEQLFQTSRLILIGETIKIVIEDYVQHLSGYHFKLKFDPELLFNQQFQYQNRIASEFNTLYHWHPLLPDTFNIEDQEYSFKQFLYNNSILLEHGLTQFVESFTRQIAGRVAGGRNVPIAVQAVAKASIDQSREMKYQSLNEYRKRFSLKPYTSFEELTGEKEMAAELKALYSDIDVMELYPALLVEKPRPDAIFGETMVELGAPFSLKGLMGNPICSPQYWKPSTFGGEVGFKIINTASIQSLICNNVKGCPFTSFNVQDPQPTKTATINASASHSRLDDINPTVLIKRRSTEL

purified murine COX-2 [2] = biological target: T1, purified murine COX-2; test: Inhibition of mCOX-2 dependent oxygenation of 2-AG and AA by profens in vitro; assay type: biochemical; parameters: made in house; host or cells: insect cells
Experimental: Desired concentrations of inhibitor in DMSO or blank (DMSO) were incubated with mCOX-2 (40 nM) for 3 minutes in 100 mM Tris-HCl with 0.5 mM phenol, pH 8.0 at 37° C. After pre-incubation of enzyme and inhibitor, 5 μM of AA or 2-AG was added at 37° C. Thirty seconds later, the reaction was quenched with 200 μL of ice-cold ethyl acetate containing 0.5% acetic acid (v/v) and 1 μM PGE2-d4 and PGE2-G-d5. The solution was then vortexed and the aqueous layer frozen. The organic layer was removed and evaporated to near-dryness under nitrogen. The samples were reconstituted in 1:1 MeOH:H2O and chromatographed using a LUNA® C18(2) column (50 2 mm, 3 μm; Phenomenex, Torrance, Calif., United States of America). […] Analyte peak areas were normalized to the appropriate internal standard to determine the amount of product formation, and inhibition was determined by normalization to a DMSO control.

[3] = system: brain eCB, AA and PG levels; test: Brain eCB, NAE, MAG, AA and PG levels after i.p. injection; assay type: in vivo, mice; settings: 40 mg/kg
Experimental: 5-7 week old male ICR mice were used for all experiments with the exception of knockout animals (Harlan, Indianapolis, Ind., United States of America). Mice were housed 5 per […]. All behavioral tests were conducted during the light cycle between 0900 and 1700. KO and WT littermate controls for FAAH^(−/−) and COX-2^(−/−) mice were derived from heterozygote breeding pairs, bred and genotyped as described in Uddin et al., 2011. CB1^(−/−) mice were bred from homozygote breeding pairs and genotyped as described in Pan et al., 2008. Mice were group-housed on a 12:12 light-dark cycle (lights on at 06:00), with food and water available ad libitum. All animal studies were approved by the Vanderbilt Institutional Animal Care and Use Committee and conducted in accordance with the Guide for the Care and Use of Laboratory Animals of the United States National Institutes of Health.
Mice were sacrificed by cervical dislocation and decapitation. The brain, lungs, liver, stomach, small intestines, and kidneys were then rapidly removed and frozen on a metal block in dry ice. The tissue was then placed in a tube and stored at −80° C. until extraction, usually one day after harvesting. For PG and eCB analysis, lipid extraction from tissue was carried out as described in Patel et al., 2009.
Analytes were quantified using LC-MS/MS on a Quantum triple-quadrupole mass spectrometer in positive-ion mode using selected reaction monitoring. Detection of eicosanoids was performed as described in Kingsley & Marnett, 2007. For fatty acid analysis the mobile phases used were 80 μM AgOAc with 0.1% (v/v) acetic acid in H2O (solvent A) and 120 μM AgOAc with 0.1% (v/v) acetic acid in MeOH (solvent B). The analytes were eluted using a gradient from 20% A to 99% B over 5 minutes. The transitions used were m/z 300→282 for PEA, m/z 328→310 for SEA, m/z 434→416 for OEA, m/z 456→438 for AEA, m/z 464→446 for AEA-d8, m/z 331→257 for 2-PG, m/z 359→285 for 2-SG, m/z 463→389 for 2-OG, m/z 485→411 for 2-AG, m/z 493→419 for 2-AG-d8, m/z 519→409 for AA, and m/z 527→417 for AA-d8. Peak areas for the analytes were normalized to the appropriate internal standard and then normalized to tissue mass for in vivo samples.

[4] = 15 min incubation, read-out: Maximum inhibition of AA oxygenation (converted)
[5] = achiral profens, at 10 μM inhibitor, AA 5 μM, read-out: AA % Inhibition
[6] = achiral profens, murine COX-2 40 nM, 3 min preincubation, 2-AG 5 μM, 37° C., 30 s, mean ± SD, read-out: 2-AG IC50
[7] = inhibitor incubated with enzyme for 15 min before addition of substrate, read-out: AA IC50
[8] = chiral profens, murine COX-2 40 nM, 3 min preincubation, 2-AG 5 μM, mean ± SD, read-out: IC50 (μM) 2-AG
[9] = 0.5 min, achiral profens, murine COX-2 40 nM, 3 min preincubation, 2-AG 5 μM, 37° C., 30 s, mean ± SD, read-out: 2-AG IC50
[10] = read-out: Maximum inhibition of 2-AG oxygenation, achiral profens, at 10 μM inhibitor, 2-AG 5 μM
[11] = chiral profens, at 10 μM inhibitor, AA 5 μM, read-out: % Inhibition AA

Cc1ccc(Nc2c(Cl)cccc2Cl)c(CC(=O)O)c1 [Compound 105]
inhibition (purified murine COX-2 [1]; [4]): 60%

CC(C)Cc1ccc(CC(=O)O)cc1 [Compound 3c, 2-(4-isobutylphenyl)acetic acid]
inhibition at 10 µM (purified murine COX-2 [2]; [5]): 14% | IC50 (purified murine COX-2 [2]; [6]): 5.5 µM

Cc1ccc(Nc2c(F)cccc2F)c(CC(=O)O)c1 [Compound 106]
inhibition (purified murine COX-2 [1]; [4]): 0% | inhibition (purified murine COX-2 [1]; [7]): < 50%

CC(C(=O)O)c1cccc(C(=O)c2ccccc2)c1 (racemic) [Compound 6e, ketoprofen, reference compound]
IC50 (purified murine COX-2 [2]; [8]): 0.3 µM | inhibition at 10 µM (purified murine COX-2 [2]; read-out: % Inhibition AA): 50%

CC(C)Cc1ccc(C2(C(=O)O)CC2)cc1 [Compound 5c, 1-(4-isobutylphenyl)cyclopropanecarboxylic acid]
inhibition at 10 µM (purified murine COX-2 [2]; [9]): < 50% | inhibition at 10 µM (purified murine COX-2 [2]; [5]): 10% | inhibition at 10 µM (purified murine COX-2 [2]; [10]): 45%

Cc1ccc(Nc2c(Cl)cc(Cl)cc2Cl)c(CC(=O)O)c1 [Compound 108]
inhibition (purified murine COX-2 [1]; [4]): 32% | inhibition (purified murine COX-2 [1]; [7]): < 50%

O=C(O)Cc1ccccc1Nc1ccccc1Cl [Compound 110]
inhibition (purified murine COX-2 [1]; read-out: AA IC50 (mM)): < 50%

O=C(c1ccccc1)c1cccc(C2(C(=O)O)CC2)c1 [Compound 5e, 1-(3-benzoylphenyl)cyclopropanecarboxylic acid]
inhibition at 10 µM (purified murine COX-2 [2]; [5]): 10% | IC50 (purified murine COX-2 [2]; [6]): 4.1 µM | inhibition at 10 µM (purified murine COX-2 [2]; [10]): 75%

Cc1ccc(Nc2ccccc2)c(CC(=O)O)c1 [Compound 104]
inhibition (purified murine COX-2 [1]; [4]): 10% | inhibition (purified murine COX-2 [1]; [7]): < 50%

Cc1cccc(F)c1Nc1ccccc1CC(=O)O [Compound 115]
inhibition (purified murine COX-2 [1]; [4]): 0% | inhibition (purified murine COX-2 [1]; [7]): < 50%

COc1ccc2cc(C3(C(=O)O)CC3)ccc2c1 [Compound 5b, 1-(6-methoxynaphthalen-2-yl)cyclopropanecarboxylic acid]
inhibition at 10 µM (purified murine COX-2 [2]; [5]): 6% | IC50 (purified murine COX-2 [2]; [6]): 3.4 µM | inhibition at 10 µM (purified murine COX-2 [2]; [10]): 77%

Cc1ccc(Nc2c(F)cccc2Cl)c(CC(=O)O)c1 [Compound 101]
inhibition (purified murine COX-2 [1]; read-out: AA IC50 (mM)): < 50%

O=C(Oc1ccc([N+](=O)[O-])cc1)N1CCC(C(O)(c2ccc3c(c2)OCO3)c2ccc3c(c2)OCO3)CC1 [JZL-184, reference compound]
Brain levels of 2-AG and 3 other MAG species [3]: increased

Cc1ccc(Nc2c(C)cccc2F)c(CC(=O)O)c1 [Compound 107]
inhibition (purified murine COX-2 [1]; [7]): < 50%

CC(C)(C(=O)O)c1cccc(C(=O)c2ccccc2)c1 [Compound 4e, 2-(3-benzoylphenyl)-2-methylpropanoic acid]
inhibition at 10 µM (purified murine COX-2 [2]; [5]): 32% | IC50 (purified murine COX-2 [2]; [6]): 3 µM

CC(C)Cc1ccc(C(C)(C)C(=O)O)cc1 [Compound 4c, 2-(4-isobutylphenyl)-2-methylpropanoic acid]
inhibition at 10 µM (purified murine COX-2 [2]; [9]): < 50% | inhibition at 10 µM (purified murine COX-2 [2]; [5]): 5% | inhibition at 10 µM (purified murine COX-2 [2]; [10]): 5%

O=C(O)Cc1cccc(Oc2ccccc2)c1 [Compound 3d, 2-(3-phenoxyphenyl)acetic acid]
inhibition at 10 µM (purified murine COX-2 [2]; [5]): 24% | IC50 (purified murine COX-2 [2]; [6]): 6.1 µM | inhibition at 10 µM (purified murine COX-2 [2]; [10]): 68%

CC(C)(C(=O)O)c1cccc(Oc2ccccc2)c1 [Compound 4d, 2-methyl-2-(3-phenoxyphenyl)propanoic acid]
inhibition at 10 µM (purified murine COX-2 [2]; [5]): 17% | IC50 (purified murine COX-2 [2]; [6]): 7.3 µM | inhibition at 10 µM (purified murine COX-2 [2]; [10]): 65%

O=C(O)Cc1ccccc1Nc1c(F)cccc1F [Compound 114]
inhibition (purified murine COX-2 [1]; read-out: AA IC50 (mM)): < 50%

O=C(O)Cc1ccccc1Nc1ccccc1F [Compound 111]
inhibition (purified murine COX-2 [1]; [4]): 0% | inhibition (purified murine COX-2 [1]; [7]): < 50%

C[C@@H](C(=O)O)c1cccc(Oc2ccccc2)c1 [Compound 7d, (R)-Fenoprofen]
inhibition at 10 µM (purified murine COX-2 [2]; [11]): 10% | inhibition at 10 µM (purified murine COX-2 [2]; read-out: IC50 (μM) 2-AG): < 50% | inhibition at 10 µM (purified murine COX-2 [2]; read-out: Maximum inhibition of 2-AG oxygenation, chiral profens, at 10 μM inhibitor, 2-AG 5 μM): 25%

O=C(O)Cc1ccccc1Nc1c(F)cccc1Cl [Compound 109]
inhibition (purified murine COX-2 [1]; read-out: AA IC50 (mM)): < 50%

C[C@H](C(=O)O)c1cccc(C(=O)c2ccccc2)c1 [(S)-ketoprofen, reference compound]
IC50 (purified murine COX-2 [2]; [8]): 0.2 µM | inhibition at 10 µM (purified murine COX-2 [2]; read-out: % Inhibition AA): 55%

O=C(O)Cc1ccccc1Nc1c(Cl)cc(Br)cc1Cl [Compound 116]
inhibition (purified murine COX-2 [1]; [4]): 55%

Cc1ccc(Nc2ccccc2F)c(CC(=O)O)c1 [Compound 103]
inhibition (purified murine COX-2 [1]; [4]): 0% | inhibition (purified murine COX-2 [1]; [7]): < 50%

COc1ccc2cc(CC(=O)O)ccc2c1 [Compound 3b, 2-(6-methoxynaphthalen-2-yl)acetic acid]
inhibition at 10 µM (purified murine COX-2 [2]; [5]): 16% | IC50 (purified murine COX-2 [2]; [6]): 1.4 µM

O=C(O)Cc1ccccc1Nc1ccccc1 [Compound 112]
inhibition (purified murine COX-2 [1]; read-out: AA IC50 (mM)): < 50%

CC(C(=O)O)c1cccc(Oc2ccccc2)c1 (racemic) [Compound 6d, fenoprofen, reference compound]
inhibition at 10 µM (purified murine COX-2 [2]; [11]): 20% | IC50 (purified murine COX-2 [2]; [8]): 0.9 µM

C[C@@H](C(=O)O)c1cccc(C(=O)c2ccccc2)c1 [Compound 7e, (R)-ketoprofen]
IC50 (purified murine COX-2 [2]; [8]): 7.3 µM | inhibition at 10 µM (purified murine COX-2 [2]; read-out: % Inhibition AA): 20% | inhibition at 10 µM (purified murine COX-2 [2]; read-out: Maximum inhibition of 2-AG oxygenation): 56%

C[C@H](C(=O)O)c1cccc(Oc2ccccc2)c1 [(S)-fenoprofen, reference compound]
% Inhibition AA (purified murine COX-2 [2]; chiral profens, at 10 μM inhibitor, AA 5 μM): 30% | IC50 (purified murine COX-2 [2]; [8]): 0.9 µM

O=C(O)C1(c2cccc(Oc3ccccc3)c2)CC1 [Compound 5d, 1-(3-phenoxyphenol)cyclopropanecarboxylic acid]
inhibition at 10 µM (purified murine COX-2 [2]; [5]): 15% | IC50 (purified murine COX-2 [2]; [6]): 5 µM

O=C(O)Cc1cccc(C(=O)c2ccccc2)c1 [Compound 3e, Desmethylketoprofen]
inhibition at 10 µM (purified murine COX-2 [2]; [5]): 10% | IC50 (purified murine COX-2 [2]; [6]): 0.5 µM

Cc1ccc(Nc2ccccc2Cl)c(CC(=O)O)c1 [Compound 102]
inhibition (purified murine COX-2 [1]; [4]): 0% | inhibition (purified murine COX-2 [1]; [7]): < 50%

COc1ccc2cc(C(C)(C)C(=O)O)ccc2c1 [Compound 4b, 2-(6-methoxynaphthalen-2-yl)-2-methylpropanoic acid]
inhibition at 10 µM (purified murine COX-2 [2]; [9]): < 50% | inhibition at 10 µM (purified murine COX-2 [2]; [5]): 7% | inhibition at 10 µM (purified murine COX-2 [2]; [10]): 12%
